Measured values reported in patent US20230099031A1, “BIFUNCTIONAL AGENTS FOR PROTEIN RECRUITMENT AND/OR DEGRADATION” (Orionis Biosciences, Inc., priority 2019, published 2023).

How the values were obtained:
Format in all cases: cell-based
[1] = target: T1, CRBN (Homo sapiens, UniProt Q96SW2); test: Competition Assay: MAPPIT-like, competition with trimethoprim-lenalidomide hybrid ligand for binding to CRBN in HEK293T cells; conditions: protocol and reagents of Example 1; read-out: IC50 Competition
T1 construct: expressed in transfected cells; host or cells: HEK293T

[2] = target: T2, SALL4 (Homo sapiens, UniProt Q96SW2+Q9UJQ4); test: Recruitment Assay (MAPPIT-like): SALL4 recruitment, pSEL-SALL4+pMG1-CRBN; conditions: recruitment of SALL4, protocol of Example 2; read-out: EC50_SALL4
T2 construct: Full size proteins are fused for each of the target proteins tested; expressed in transfected cells; host or cells: HEK293T
Procedure: (§1) In this experimental set-up, cells are transfected with a construct encoding a CRBN-fusion protein and another one encoding a substrate-fusion protein. Test compound activity is assessed with increasing concentrations of test compounds (dose-response studies) to monitor the ability to promote CRBN-ligand-induced protein interaction.
(§2) Full size proteins are fused for each of the target proteins tested, except in the case of IKZF1 where isoform 7 is used, and BRD4, where isoform 3 is applied. For the study, the following construct combinations are used: IKZF1 recruitment: pSEL-CRBN+pMG1-IKZF1(isoform 7); ASS1 recruitment: pSEL-CRBN+pMG1-ASS1; SALL4 recruitment: pSEL-SALL4+pMG1-CRBN; DHFR recruitment: pCLG-DHFR+pMG1-CRBN; ESR1 recruitment: pSEL-CRBN+pMG1-ESR1; BRD4 recruitment: pSEL-CRBN+pMG1-BRD4(isoform 3). Cells are treated with erythropoietin (Epo; where pSEL-type receptor fusions constructs are used) or leptin (in the case pCLG-type receptor fusion constructs are applied) without or with the indicated dose of test compound at 24 hours after transfection. Luciferase activity is measured 24 hours after test compound treatment using the Luciferase Assay System kit (PROMEGA, Madison, Wis.) with an Ensight plate reader (PERKIN ELMER LIFE SCIENCES, Waltham, Mass.). Data points depict fold induction of the average luciferase activity of triplicate samples from Epo or leptin+test compound treated cells versus Epo or leptin only treated cells. Error bars represent standard deviations. Curves are fit using 4-parameter nonlinear regression in […] PRISM software.

[3] = target: T3, ASS1 (Homo sapiens, UniProt P00966+Q96SW2); test: Recruitment Assay (MAPPIT-like): ASS1 recruitment, pSEL-CRBN+pMG1-ASS1; conditions: recruitment of ASS1, protocol of Example 2; for EC50: read-out: EC50_ASS1
T3 construct: Full size proteins are fused for each of the target proteins tested; expressed in transfected cells; host or cells: HEK293T
Procedure: as §1, §2

Compound | IC50 [1] [µM] | EC50 [2] [µM] | EC50_ASS1 (M) [3] | EC50 [3] [µM]
CC(C)OC1c2ccccc2C(=O)N1C1CCC(=O)NC1=O (centres unmarked) [3-(1-isopropoxy-3-oxo-isoindolin-2-yl)piperidine-2,6-dione] | 22.9 | 2.7 | – | –
Cc1nc2ccc(C#N)c(N)c2c(=O)n1C1CCC(=O)NC1=O (centres unmarked) [Compound C10001, 5-amino-3-(2,6-dioxo-3-piperidyl)-2-methyl-4-oxo-quinazoline-6-carbonitrile] | – | 1.25 | >> | –
O=C1CCC(N2C(=O)c3ccccc3C2NCc2ccccc2)C(=O)N1 (centres unmarked) [Compound C10239, 3-[1-(benzylamino)-3-oxo-isoindolin-2-yl]piperidine-2,6-dione] | – | 1.16 | – | –
CN(C)C1c2ccccc2C(=O)N1C1CCC(=O)NC1=O (centres unmarked) [Compound C10981, 3-[1-(dimethylamino)-3-oxo-isoindolin-2-yl]piperidine-2,6-dione] | 7.81 | 1.46 | >> | –
O=C1CCC(N2Cc3ccc(NCC(=O)NC4CCOCC4)cc3C2=O)C(=O)N1 (centres unmarked) [Compound C12693, 2-[[2-(2,6-dioxo-3-piperidyl)-3-oxo-isoindolin-5-yl]amino]-N-tetrahydropyran-4-yl-acetamide] | 8.33 | 2.62 | – | –
O=C1CCC(N2Cc3ccc(NCC(=O)NC4CCOC4)cc3C2=O)C(=O)N1 (centres unmarked) [Compound C12694, 2-[[2-(2,6-dioxo-3-piperidyl)-3-oxo-isoindolin-5-yl]amino]-N-tetrahydrofuran-3-yl-acetamide] | – | 3.43 | – | –
O=C1CCC(N2Cc3ccc(O)cc3C2=O)C(=O)N1 (centres unmarked) [Compound C28928, 3-(6-hydroxy-1-oxo-isoindolin-2-yl)piperidine-2,6-dione] | – | – | >> | –
CC(=O)NC1c2ccccc2C(=O)N1C1CCC(=O)NC1=O (centres unmarked) [Compound C33779, N-[2-(2,6-dioxo-3-piperidyl)-3-oxo-isoindolin-1-yl]acetamide] | 49.4 | 3.03 | – | –
CC(=O)NCCNc1ccc2c(c1)CN(C1CCC(=O)NC1=O)C2=O (centres unmarked) [Compound C35745, N-[2-[[2-(2,6-dioxo-3-piperidyl)-1-oxo-isoindolin-5-yl]amino]ethyl]acetamide] | 11.2 | 2.63 | – | –
O=C(O)CNc1cccc2c1C(=O)N(C1CCC(=O)NC1=O)C2 (centres unmarked) [Compound C47998, 2-[[2-(2,6-dioxo-3-piperidyl)-3-oxo-isoindolin-4-yl]amino]acetic acid] | 6.59 | 2.17 | – | –
Cc1ccc(NC(=O)NCc2cc(C)c3c(c2)CN(C2CCC(=O)NC2=O)C3=O)cc1Cl (centres unmarked) [Compound C58181, 1-(3-chloro-4-methyl-phenyl)-3-[[2-(2,6-dioxo-3-piperidyl)-7-methyl-1-oxo-isoindolin-5-yl]methyl]urea] | 0.0291 | – | >> | –
O=C1CCC(N2C(=O)C3=C(C2=O)c2ccccc2CC3)C(=O)N1 (centres unmarked) [Compound C64340, 2-(2,6-dioxo-3-piperidyl)-4,5-dihydrobenzo[e]isoindole-1,3-dione] | 2500 | 1.49 | – | –
O=C1CCC(N2Cc3cc(Nc4ncccn4)ccc3C2=O)C(=O)N1 (centres unmarked) [Compound C80369, 3-[1-oxo-5-(pyrimidin-2-ylamino)isoindolin-2-yl]piperidine-2,6-dione] | 0.0415 | – | – | 1.29
O=C1CCC(N2Cc3cc(Nc4ncnc5ccccc45)ccc3C2=O)C(=O)N1 (centres unmarked) [Compound C80373, 3-[1-oxo-5-(quinazolin-4-ylamino)isoindolin-2-yl]piperidine-2,6-dione] | 0.892 | – | >> | –
O=C1CCC(N2Cc3ccc(NC(=O)c4cnc5nccn5c4)cc3C2=O)C(=O)N1 (centres unmarked) [Compound C80396, N-[2-(2,6-dioxo-3-piperidyl)-3-oxo-isoindolin-5-yl]imidazo[1,2-a]pyrimidine-6-carboxamide] | 2.63 | 1.38 | – | –
O=C1CCC(N2Cc3ccccc3C2)C(=O)N1 (centres unmarked) [Compound C87699, 3-isoindolin-2-ylpiperidine-2,6-dione] | 19.6 | 4.82 | – | –
O=C1CCC(N2C(=O)c3ccccc3C2=O)C(=O)N1 (centres unmarked) [THL, Thalidomide, reference compound] | – | – | >> | –

More lines, in order of falling EC50 [2], values ahead:

IC50 [1] [µM] | EC50 [2] [µM] | EC50_ASS1 (M) [3] | EC50 [3] [µM] | Compound
1.3 | 1.14 | – | – | CN(C)CC(=O)Nc1cccc2c1CN(C1CCC(=O)NC1=O)C2=O (centres unmarked) [Compound C22586, 2-(dimethylamino)-N-[2-(2,6-dioxo-3-piperidyl)-1-oxo-isoindolin-4-yl]acetamide]
1.42 | 1.01 | – | – | CC(Nc1ccc2c(c1)C(=O)N(C1CCC(=O)NC1=O)C2)C(=O)O (centres unmarked) [Compound C84970, 2-[[2-(2,6-dioxo-3-piperidyl)-3-oxo-isoindolin-5-yl]amino]propanoic acid]
21.9 | 0.904 | – | – | Cc1ccc2c(=O)n(C3CCC(=O)NC3=O)nnc2c1 (centres unmarked) [Compound C17800, 3-(7-methyl-4-oxo-1,2,3-benzotriazin-3-yl)piperidine-2,6-dione]
1.67 | 0.873 | >> | – | COCC(=O)Nc1cccc2c1CN(C1CCC(=O)NC1=O)C2=O (centres unmarked) [Compound C22564, N-[2-(2,6-dioxo-3-piperidyl)-1-oxo-isoindolin-4-yl]-2-methoxy-acetamide]
2.67 | 0.772 | – | – | Cc1ccc2nnn(C3CCC(=O)NC3=O)c(=O)c2c1 (centres unmarked) [Compound C16463, 3-(6-methyl-4-oxo-1,2,3-benzotriazin-3-yl)piperidine-2,6-dione]
2.44 | 0.641 | >> | – | NC(=O)c1cccc(NC(=O)CNc2ccc3c(c2)CN(C2CCC(=O)NC2=O)C3=O)c1 (centres unmarked) [Compound C35811, 3-[[2-[[2-(2,6-dioxo-3-piperidyl)-1-oxo-isoindolin-5-yl]amino]acetyl]amino]benzamide]
1.73 | 0.595 | – | – | N#Cc1ccc2c(c1)CN(C1CCC(=O)NC1=O)C2=O (centres unmarked) [Compound C48005, 2-(2,6-dioxo-3-piperidyl)-1-oxo-isoindoline-5-carbonitrile]
– | 0.559 | – | – | O=C1CCC(N2Cc3cc(Nc4ncc5[nH]cnc5n4)ccc3C2=O)C(=O)N1 (centres unmarked) [Compound C80376, 3-[1-oxo-5-(7H-purin-2-ylamino)isoindolin-2-yl]piperidine-2,6-dione]
2.29 | 0.517 | >> | – | O=C1CCC(n2nnc3ccccc3c2=O)C(=O)N1 (centres unmarked) [Compound C21223, 3-(4-oxo-1,2,3-benzotriazin-3-yl)piperidine-2,6-dione]
0.228 | 0.395 | – | – | O=C1CCC(N2Cc3ccc(-c4ccccc4)cc3C2=O)C(=O)N1 (centres unmarked) [Compound C48018, 3-(1-oxo-6-phenyl-isoindolin-2-yl)piperidine-2,6-dione]
0.737 | 0.278 | >> | – | CCOC(=O)NCCNc1ccc2c(c1)CN(C1CCC(=O)NC1=O)C2=O (centres unmarked) [Compound C35754, ethyl N-[2-[[2-(2,6-dioxo-3-piperidyl)-1-oxo-isoindolin-5-yl]amino]ethyl]carbamate]
0.178 | 0.27 | – | – | Cc1ccc2c(c1)C(=O)N(C1CCC(=O)NC1=O)C2 (centres unmarked) [Compound C28620, 3-(6-methyl-1-oxo-isoindolin-2-yl)piperidine-2,6-dione]
0.486 | 0.232 | – | 1.45 | O=C1CCC(N2Cc3cc(NCCNC(=O)Nc4ccccc4)ccc3C2=O)C(=O)N1 (centres unmarked) [Compound C35751, 1-[2-[[2-(2,6-dioxo-3-piperidyl)-1-oxo-isoindolin-5-yl]amino]ethyl]-3-phenyl-urea]
1.43 | 0.186 | >> | – | CC(=O)Nc1ccc2c(c1)CN(C1CCC(=O)NC1=O)C2=O (centres unmarked) [Compound C29361, N-[2-(2,6-dioxo-3-piperidyl)-1-oxo-isoindolin-5-yl]acetamide]
0.163 | 0.152 | – | – | O=C1CCC(N2Cc3ccc(Nc4ncc5c(n4)COC5)cc3C2=O)C(=O)N1 (centres unmarked) [Compound C80391, 3-[6-(5,7-dihydrofuro[3,4-d]pyrimidin-2-ylamino)-1-oxo-isoindolin-2-yl]piperidine-2,6-dione]
0.173 | 0.122 | – | – | O=C1CCC(N2Cc3cc(-c4ccccc4)ccc3C2=O)C(=O)N1 (centres unmarked) [Compound C48016, 3-(1-oxo-5-phenyl-isoindolin-2-yl)piperidine-2,6-dione]
0.225 | 0.121 | >> | – | CCOC(=O)Nc1cccc2c1CN(C1CCC(=O)NC1=O)C2=O (centres unmarked) [Compound C22622, ethyl N-[2-(2,6-dioxo-3-piperidyl)-1-oxo-isoindolin-4-yl]carbamate]
0.248 | 0.0882 | >> | – | O=C1CCC(N2Cc3cccc(F)c3C2=O)C(=O)N1 (centres unmarked) [Compound C23066, 3-(7-fluoro-1-oxo-isoindolin-2-yl)piperidine-2,6-dione]
